The text below walks through data of patent US8466098B2, “Washing agent having stabilized enzymes” (Henkel AG & Co. KGaA, priority 2007, dated 2013).

This experiment addresses T1, Bacillus lentus alkaline protease F49 (Lederbergia lenta, UniProt P29599, A188P/L211D/S3T/V193M/V199I).
T1 sequence (P29599 with tags, fused parts or gaps A188P/V193M/V199I/L211D limits assumed): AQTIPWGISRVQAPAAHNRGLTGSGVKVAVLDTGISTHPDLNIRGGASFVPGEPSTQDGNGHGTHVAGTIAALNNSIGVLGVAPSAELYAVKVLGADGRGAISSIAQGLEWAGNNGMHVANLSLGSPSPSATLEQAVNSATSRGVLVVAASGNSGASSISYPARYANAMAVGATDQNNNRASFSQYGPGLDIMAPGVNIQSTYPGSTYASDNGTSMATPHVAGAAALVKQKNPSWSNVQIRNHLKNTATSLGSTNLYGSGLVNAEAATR
The experiment is described as follows: Residual protease activity in the presence of an inhibitor (AAPFpNA substrate). The class given is biochemical. The settings on record: compound 10 mM final concentration; incubation 5 min at pH 8.6 and 25° C.; batch without compound set at 100%. As to the method: In parallel reaction batches, the succinyl-alanine-alanine-proline-phenylalanine-para-nitroanilide substrate (AAPFpNA; Bachem L-1400) and 5×10^−9 or 1×10^−8 M of the protease were prepared in 100 mM BrijTM35 Tris buffer, […], 0.1% (w/v). The compounds to be tested (listed below) were added at a final concentration of 10 mM. They were each dissolved in anhydrous DMSO, the effects of DMSO on enzymatic activity having been corrected via the corresponding reference having the same quantity of DMSO but without the relevant compound. Incubation occurred for 5 min at pH 8.6 and 25° C. The corresponding reaction mixture with protease, but without the relevant compound, served as a comparison. The protease activity in these comparison batches was set at 100%.

Take `O=P(O)(OCc1ccccc1)OCc1ccccc1` [V2, dibenzyl phosphate]: the residual protease activity was 56%. The value for `CCCCOP(=O)(O)OCCCC` [V1, dibutyl phosphate] was 45%.
